≈ marks a conversion by molar mass, not a printed value. One block for each molecule: values may come before it. Calls of active or inactive are those of the source. The rule behind the calls is not given here.
Assays:
[1] = target: T1, Metabotropic glutamate receptor 5 (Homo sapiens, UniProt P41594); assay: Agonist activity at human mGluR5 transiently transfected in BHK cells assessed as potentiation of L-glutamate-induced calcium flux by FLIPR assay; assay type: functional, cell-based
Target sequence in this assay (P41594 whole entry): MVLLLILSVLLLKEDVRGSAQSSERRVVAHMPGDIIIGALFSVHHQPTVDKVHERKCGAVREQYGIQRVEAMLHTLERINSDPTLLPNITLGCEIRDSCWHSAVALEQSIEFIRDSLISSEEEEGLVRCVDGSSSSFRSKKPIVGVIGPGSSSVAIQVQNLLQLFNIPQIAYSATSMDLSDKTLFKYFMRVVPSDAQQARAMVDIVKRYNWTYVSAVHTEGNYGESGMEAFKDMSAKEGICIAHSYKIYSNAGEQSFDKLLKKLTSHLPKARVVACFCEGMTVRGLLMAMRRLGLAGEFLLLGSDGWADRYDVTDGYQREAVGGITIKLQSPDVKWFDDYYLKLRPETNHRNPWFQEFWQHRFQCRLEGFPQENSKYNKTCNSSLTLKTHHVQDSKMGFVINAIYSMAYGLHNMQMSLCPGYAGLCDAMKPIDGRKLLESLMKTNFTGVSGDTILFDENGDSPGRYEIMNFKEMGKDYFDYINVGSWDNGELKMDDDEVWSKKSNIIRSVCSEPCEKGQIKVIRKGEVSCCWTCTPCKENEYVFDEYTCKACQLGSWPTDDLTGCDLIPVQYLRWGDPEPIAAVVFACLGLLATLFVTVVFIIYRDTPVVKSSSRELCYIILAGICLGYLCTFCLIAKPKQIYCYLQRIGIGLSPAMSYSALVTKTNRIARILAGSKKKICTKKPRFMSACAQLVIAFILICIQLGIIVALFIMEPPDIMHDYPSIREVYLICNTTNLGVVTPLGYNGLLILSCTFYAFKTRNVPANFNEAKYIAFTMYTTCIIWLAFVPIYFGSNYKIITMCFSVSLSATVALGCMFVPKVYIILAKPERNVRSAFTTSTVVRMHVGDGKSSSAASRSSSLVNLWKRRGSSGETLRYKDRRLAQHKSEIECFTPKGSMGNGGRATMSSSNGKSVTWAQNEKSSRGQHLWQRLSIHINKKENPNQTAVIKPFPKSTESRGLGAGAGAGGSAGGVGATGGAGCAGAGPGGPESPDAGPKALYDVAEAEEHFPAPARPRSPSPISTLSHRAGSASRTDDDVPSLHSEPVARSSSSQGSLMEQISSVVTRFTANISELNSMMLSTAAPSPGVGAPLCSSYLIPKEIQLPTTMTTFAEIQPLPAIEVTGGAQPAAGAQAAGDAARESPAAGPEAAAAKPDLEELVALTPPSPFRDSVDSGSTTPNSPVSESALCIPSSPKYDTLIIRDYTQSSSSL

[2] = target: T1, Metabotropic glutamate receptor 5; assay: Agonist activity at human mGluR5 transiently transfected in BHK cells assessed as potentiation of L-glutamate-induced calcium flux at 10 uM by FLIPR assay
Target sequence in this assay (P41594 whole entry): as above

[3] = target: T1, Metabotropic glutamate receptor 5; assay: Displacement of [3H]quisqualic acid from human recombinant mGluR5 expressed in BHK cells by radioligand binding assay; assay type: cell-based
Target sequence in this assay (P41594 21-1212 limits assumed): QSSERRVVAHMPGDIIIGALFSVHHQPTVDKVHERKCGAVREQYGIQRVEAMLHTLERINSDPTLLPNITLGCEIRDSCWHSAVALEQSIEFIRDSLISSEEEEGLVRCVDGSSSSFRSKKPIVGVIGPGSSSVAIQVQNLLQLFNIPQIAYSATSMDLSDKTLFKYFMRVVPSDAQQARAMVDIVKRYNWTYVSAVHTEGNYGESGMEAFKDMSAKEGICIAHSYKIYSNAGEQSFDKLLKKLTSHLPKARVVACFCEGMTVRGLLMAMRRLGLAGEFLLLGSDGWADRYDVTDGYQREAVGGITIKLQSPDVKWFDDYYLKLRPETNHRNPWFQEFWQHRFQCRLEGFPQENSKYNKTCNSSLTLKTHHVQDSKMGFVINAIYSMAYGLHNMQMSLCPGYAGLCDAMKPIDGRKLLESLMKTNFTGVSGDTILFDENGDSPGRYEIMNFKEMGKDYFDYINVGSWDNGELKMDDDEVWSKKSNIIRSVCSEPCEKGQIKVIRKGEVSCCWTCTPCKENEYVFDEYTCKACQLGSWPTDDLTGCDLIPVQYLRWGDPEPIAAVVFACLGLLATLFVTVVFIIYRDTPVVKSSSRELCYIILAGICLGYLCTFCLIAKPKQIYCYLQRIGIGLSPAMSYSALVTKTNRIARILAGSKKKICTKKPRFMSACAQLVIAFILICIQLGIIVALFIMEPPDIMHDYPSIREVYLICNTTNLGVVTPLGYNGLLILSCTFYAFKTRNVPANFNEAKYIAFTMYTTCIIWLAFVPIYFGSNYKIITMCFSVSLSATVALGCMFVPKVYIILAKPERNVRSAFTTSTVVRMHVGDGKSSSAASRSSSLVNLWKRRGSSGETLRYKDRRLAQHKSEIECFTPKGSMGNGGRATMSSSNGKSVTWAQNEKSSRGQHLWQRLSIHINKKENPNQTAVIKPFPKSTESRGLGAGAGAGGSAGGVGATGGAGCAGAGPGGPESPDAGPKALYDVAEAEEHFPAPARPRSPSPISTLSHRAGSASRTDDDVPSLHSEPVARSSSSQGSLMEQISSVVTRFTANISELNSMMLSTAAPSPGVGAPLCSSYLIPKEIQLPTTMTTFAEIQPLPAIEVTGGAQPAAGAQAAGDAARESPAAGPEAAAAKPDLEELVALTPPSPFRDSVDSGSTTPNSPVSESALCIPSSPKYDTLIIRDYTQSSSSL

[4] = target: T1, Metabotropic glutamate receptor 5; assay: Potentiation of [3H]quisqualic acid binding to human recombinant mGluR5 expressed in BHK cells at >1 uM by radioligand binding assay; assay type: cell-based
Target sequence in this assay (P41594 21-1212 limits assumed): as above

[5] = target: T1, Metabotropic glutamate receptor 5; assay: Displacement of [3H]MPEP from human recombinant mGluR5 expressed in BHK cells at by radioligand binding assay; assay type: cell-based
Target sequence in this assay (P41594 whole entry): as the sequence (P41594 whole entry) above

[6] = target: T1, Metabotropic glutamate receptor 5; assay: Activity at human mGluR5 transiently transfected in BHK cells assessed as decrease in maximum response of L-glutamate for calcium flux at 0.60 uM by FLIPR assay; assay type: functional, cell-based
Target sequence in this assay (P41594 21-1212 limits assumed): as the sequence (P41594 21-1212 limits assumed) above

[7] = target: Metabotropic glutamate receptor 1 (Homo sapiens) (UniProt Q13255); assay: Agonist activity at mGluR1 at 10 uM; assay type: functional
Chain of Metabotropic glutamate receptor 1 (Homo sapiens) (Q13255 19-1194 limits assumed): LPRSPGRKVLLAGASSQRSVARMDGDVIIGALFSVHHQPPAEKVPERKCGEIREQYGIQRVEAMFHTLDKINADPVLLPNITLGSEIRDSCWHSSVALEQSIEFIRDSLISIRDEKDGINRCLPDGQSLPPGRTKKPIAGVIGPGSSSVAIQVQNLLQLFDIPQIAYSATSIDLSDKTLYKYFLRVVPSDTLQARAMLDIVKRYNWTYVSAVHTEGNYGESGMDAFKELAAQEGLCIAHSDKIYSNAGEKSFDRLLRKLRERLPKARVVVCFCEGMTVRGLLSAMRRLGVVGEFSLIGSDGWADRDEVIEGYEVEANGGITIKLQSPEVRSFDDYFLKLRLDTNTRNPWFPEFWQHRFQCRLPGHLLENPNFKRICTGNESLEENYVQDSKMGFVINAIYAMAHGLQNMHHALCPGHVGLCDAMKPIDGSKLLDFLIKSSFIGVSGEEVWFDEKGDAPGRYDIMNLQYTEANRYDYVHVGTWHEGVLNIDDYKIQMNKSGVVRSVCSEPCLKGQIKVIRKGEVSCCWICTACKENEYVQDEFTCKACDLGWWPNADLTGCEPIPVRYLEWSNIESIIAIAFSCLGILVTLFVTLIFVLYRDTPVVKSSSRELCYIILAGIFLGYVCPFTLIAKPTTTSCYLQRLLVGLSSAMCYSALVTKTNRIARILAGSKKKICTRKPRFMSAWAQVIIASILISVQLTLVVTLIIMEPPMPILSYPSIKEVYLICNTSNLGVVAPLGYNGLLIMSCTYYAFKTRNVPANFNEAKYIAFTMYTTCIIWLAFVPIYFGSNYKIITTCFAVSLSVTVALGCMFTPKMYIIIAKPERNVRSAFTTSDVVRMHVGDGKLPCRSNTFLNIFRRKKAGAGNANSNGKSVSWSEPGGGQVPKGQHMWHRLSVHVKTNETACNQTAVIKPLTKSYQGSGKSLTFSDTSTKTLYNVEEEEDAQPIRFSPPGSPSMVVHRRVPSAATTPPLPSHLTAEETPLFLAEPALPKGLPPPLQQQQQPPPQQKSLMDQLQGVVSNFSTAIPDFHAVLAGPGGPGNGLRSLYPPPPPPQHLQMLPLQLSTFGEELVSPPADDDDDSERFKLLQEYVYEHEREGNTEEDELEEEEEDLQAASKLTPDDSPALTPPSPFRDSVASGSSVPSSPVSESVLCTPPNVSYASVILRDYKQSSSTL

[8] = target: Metabotropic glutamate receptor 1 (Homo sapiens) (UniProt Q13255); assay: Antagonist activity at mGluR1 at 10 uM; assay type: functional
[9] = target: Metabotropic glutamate receptor 1 (Homo sapiens) (UniProt Q13255); assay: Allosteric modulation of mGluR1 at 10 uM
[10] = Aqueous solubility at pH 7.4; assay type: physicochemical; conditions: aqueous medium
[11] = Ratio of drug level in brain to plasma in C57/6J mouse at 5 mg/kg, po by turboflow chromatography; assay type: ADME, organism-based; design: dose 5 mg/kg, route oral; conditions: brain and plasma
[12] = Ratio of drug level in brain to plasma in Lister Hooded rat at 2.5 mg/kg, po by turboflow chromatography; assay type: ADME, organism-based; design: dose 2.5 mg/kg, route oral; conditions: brain and plasma
[13] = Elimination half life in C57/6J mouse at 5 mg/kg, po; assay type: ADME, organism-based; design: dose 5 mg/kg, route oral; conditions: in vivo, read-out: beta t1/2 (converted)
[14] = Elimination half life in Lister Hooded rat at 2.5 mg/kg, po; assay type: ADME, organism-based; design: dose 2.5 mg/kg, route oral; conditions: in vivo, read-out: beta t1/2 (converted)
[15] = target: T1, Metabotropic glutamate receptor 5; assay: Agonist activity at human mGluR5 transiently transfected in BHK cells assessed as potentiation of L-glutamate-induced calcium flux at 100 nM by FLIPR assay; assay type: functional, cell-based
Target sequence in this assay (P41594 21-1212 limits assumed): as the sequence (P41594 21-1212 limits assumed) above

[16] = target: T1, Metabotropic glutamate receptor 5; assay: Agonist activity at human mGluR5 transiently transfected in BHK cells assessed as potentiation of L-glutamate-induced calcium flux at 1000 nM by FLIPR assay; assay type: functional, cell-based
Target sequence in this assay (P41594 21-1212 limits assumed): as above

[17] = target: T1, Metabotropic glutamate receptor 5; assay: Agonist activity at human mGluR5 transiently transfected in BHK cells assessed as 5.5 fold decrease in L-glutamate EC50 for induction of calcium flux at 1 uM by FLIPR assay
Target sequence in this assay (P41594 21-1212 limits assumed): as above

[18] = target: T1, Metabotropic glutamate receptor 5; assay: Agonist activity at human mGluR5 transiently transfected in BHK cells assessed as potentiation of L-glutamate-induced calcium flux by FLIPR assay relative to L-glutamate; assay type: functional, cell-based

Compound: CCOC(=O)c1ccc(C#Cc2ccccc2)nc1
EC50 [2]: Not Active

Compound: CC1CCC(NC(=O)c2ccc(C#Cc3ccccc3)nc2)CC1 (stereo not drawn)
EC50 [1]: 1200 nM

Compound: O=C(NCc1ccsc1)c1ccc(C#Cc2ccccc2)nc1
EC50 [1]: 140 nM

Compound: CC(C)CCNC(=O)c1ccc(C#Cc2ccccc2)nc1
EC50 [1]: 510 nM

Compound: O=C(NC1CCCC1)c1ccc(C#Cc2ccccc2)nc1
EC50 [1]: 30 nM
Activity [3]: inactive
Activity [4]: 30%
Ki [5]: 1800 nM
Activity [6]: Active
Activity [7]: inactive
Activity [8]: inactive
Activity [9]: inactive
solubility [10]: 1.7 µM (≈ 0.494 µg/mL)
Kp [11]: 0.5
Kp [12]: 0.3
half-life [13]: 60 min
half-life [14]: 240 min
Activity [15]: Active
Activity [16]: Active
Activity [17]: Active

Compound: O=C(NC1CCCCC1)c1ccc(C#Cc2ccccc2)nc1
EC50 [1]: 240 nM

Compound: O=C(NCc1ccco1)c1ccc(C#Cc2ccccc2)nc1
EC50 [1]: 180 nM

Compound: NC(=O)c1ccc(C#Cc2ccccc2)nc1
EC50 [1]: 6600 nM

Next, values leading:

EC50 [1]: 1600 nM
Compound: CN1CCN(C(=O)c2ccc(C#Cc3ccccc3)nc2)CC1

EC50 [1]: 720 nM
Compound: CC1CCN(C(=O)c2ccc(C#Cc3ccccc3)cc2)CC1

EC50 [1]: 990 nM
Compound: O=C(c1ccc(C#Cc2ccccc2)nc1)N1CCOCC1

EC50 [1]: 1200 nM
Compound: O=C(NCc1ccsc1)c1ccc(C#Cc2ccccc2)cc1

EC50 [1]: 130 nM
Compound: CC1CCN(C(=O)c2ccc(C#Cc3ccccc3)nc2)CC1

EC50 [1]: 280 nM
Compound: O=C(c1ccc(C#Cc2ccccc2)nc1)N1CCCCC1

EC50 [1]: 970 nM
Activity [18]: 73%
Compound: C(#Cc1ccc(C(N2CCOCC2)N2CCOCC2)cc1)c1ccccc1

EC50 [1]: 46 nM
Compound: O=C(c1ccc(C#Cc2ccccc2)nc1)N1CCSCC1

EC50 [1]: 3100 nM
Compound: CN1CCN(C(=O)c2ccc(C#Cc3ccccc3)cc2)CC1

Source: ChEMBL document CHEMBL1158434, “Discovery of a potent and brain penetrant mGluR5 positive allosteric modulator” (Bioorg Med Chem Lett, 2009)
